# Reference: patent publication US6136835A (priority 1999, dated 2000)
# “And” between values parts separate entries of the source, which are not always exact repeats. Identical values can stand only once. Like-named read-outs stand apart in the source and are kept apart here.
# Experiments:
# murine melanoma (B16) = details: for % Increase in survival time relative to control (100%) / Survivors in cancer model: mouse, in vivo
# Procedure: In an in vivo mouse model for murine melanoma (B16) fluconazole was tested alone and in combination with adriamycin (doxorubicin) at various doses.
# [1] = tested on: human influenza virus, strain AT2/Taiwan/1/64; test: Anti viral evaluation with human influenza virus in mice; format: in vivo; details: 21 days observation, virus dose ~90% lethality
# Rhinovirus = details: in vivo Rhinovirus
# [2] = tested on: solid tumors removed from patients; test: In Vitro Human Tumor Colony Forming Units Test; format: cell-based; details: for effective against tumors (number of tumors): continuous exposure or single dose experiment
# Procedure: (§1) Solid tumors removed from patients are minced into 2 to 5 mm fragments and immediately placed in McCoy's Medium 5A plus 10% heat inactivated newborn calf serum lus 1% penicillin/streptomycin. Within 4 hours, these solid tumors are mechanically disassociated with scissors, forced through No. 100 stainless steel mesh, through 25 gauge needles, and then washed with McCoys medium as described above. Ascitic, pleural, pericardial fluids and bone marrow are obtained by standard techniques. The fluid or marrow is placed in sterile containers containing 10 units of preservative free heparin per ml. of malignant fluid or marrow. After centrifugation at 150× g for 10 minutes, the cells are harvested and washed with McCoy's medium plus 10% heat inactivated calf serum. The viability of cell suspensions is determined on a hemocytometer with trypan blue.
# Cells to be cloned are suspended in 0.3% agar in enriched CMRL1066 supplemented with 15% heat inactivated horse serum, penicillin (100 units/ml), streptomycin ([…]), glutamine (2 mM ), insulin (3 units/ml), asparagine (0.6 mg/ml), and HEPES buffer (2 mM ). For the continuous exposure test each compound is added to the above mixture. Cells are placed in 35 mm petri dishes in a top layer of agar over an underlayer of agar to prevent growth of fibroblasts. Three plates are prepared for each data point. The plates are placed in a 37° C. incubator, and are removed on day 14 for counting of the number of colonies in each plate. The number of colonies (defined as 50 cells) formed in the 3 compound treated plates is compared to the number of colonies formed in the 3 control plates, and the percent colonies surviving at the concentration of compound can be tabulated. Three positive control plates are used to determine survival rate. Orthosodium vanadate at 200 μg/ml is used as the positive control. If there is <30% cells in the positive control when compared to the untreated control, the test is evaluated. […]
# [3] = tested on: lung, non-small cell cancer; test: In Vitro Human Tumor Colony Forming Units Test, lung, non-small cell; format: cell-based; details: 50.0 μg/ml, continuous exposure
# Procedure: as §1
# (§2) Cells to be cloned are suspended in 0.3% agar in enriched CMRL1066 supplemented with 15% heat inactivated horse serum, penicillin (100 units/ml), streptomycin ([…]), glutamine (2 mM ), insulin (3 units/ml), asparagine (0.6 mg/ml), and HEPES buffer (2 mM ). For the continuous exposure test each compound is added to the above mixture. […] If there is <30% cells in the positive control when compared to the untreated control, the test is evaluated. […]
# ovarian cancer = test: In Vitro Human Tumor Colony Forming Units Test, ovarian; format: cell-based; details: 50.0 μg/ml, continuous exposure
# Procedure: as §1, §2
# influenza = test: in vitro model for influenza
# chronic hepatitis C = details: interferon with or without ribavarin; cited from earlier work
compound,measurement,setting,value
COc1cccc2c1C(=O)c1c(O)c3c(c(O)c1C2=O)C[C@@](O)(C(=O)CO)C[C@@H]3O[C@H]1C[C@H](N)[C@H](O)[C@H](C)O1 [Adriamycin],Toxic deaths,"murine melanoma (B16); fluconazole 0, adriamycin 2 mg/kg",0
same,Toxic deaths,"murine melanoma (B16); fluconazole 0, adriamycin 3 mg/kg",0
same,Toxic deaths,"murine melanoma (B16); fluconazole 0, adriamycin 4 mg/kg",0
same,% Increase in survival time relative to control (100%),murine melanoma (B16),cures occurred
same,Survivors in cancer model,murine melanoma (B16),6/10 and 8/10 and 10/10
NC12CC3CC(CC(C3)C1)C2 [Amantadine],Percent Mortality,[1]; 75 mg/kg oral,0%
"OC(Cn1cncn1)(Cn1cncn1)c1ccc(F)cc1F [Fluconazole, 2-(2,4-difluorophenyl)-1,3-bis(1H-1,2,4-triazol-1-yl)propan-2-ol]",Toxic deaths,"murine melanoma (B16); fluconazole 175 mg/kg, adriamycin 0",0
same,Toxic deaths,"murine melanoma (B16); fluconazole 350 mg/kg, adriamycin 0",0
same,Toxic deaths,"murine melanoma (B16); fluconazole 700 mg/kg, adriamycin 0",0
same,% Increase in survival time relative to control (100%),murine melanoma (B16),120% and 116% and 117%
same,Survivors in cancer model,murine melanoma (B16),0
same,Percent Mortality,[1]; 350 mg/kg oral,0%
same,Percent Mortality,[1]; 700 mg/kg oral,30%
same,activity in screening test,Rhinovirus,Nor was it active
same,effective against tumors (number of tumors),[2]; 0.5 μg/ml,0/3
same,effective against tumors (number of tumors),[2]; 5.0 μg/ml,0/13
same,tumors with <50% survival (over all),"[2]; 50.0 μg/ml, continuous exposure",4/13
same,"effectiveness against lung, non-small cell cancer",[3],effective
same,effectiveness against ovarian cancer,ovarian cancer,effective
same,activity in an in vitro model for influenza,influenza,did not show activity
interferon,response rate,chronic hepatitis C,about 25%
